# Assay results as given in ChEMBL document CHEMBL4431378, “Small Molecule Antagonists of the Nuclear Androgen Receptor for the Treatment of Castration-Resistant Prostate Cancer” (ACS Med Chem Lett, 2016).
# pEC50: −log10 of the molar value.
# Biological target: T1, Androgen receptor (Homo sapiens, UniProt P10275)
# T1 sequence (P10275 whole entry): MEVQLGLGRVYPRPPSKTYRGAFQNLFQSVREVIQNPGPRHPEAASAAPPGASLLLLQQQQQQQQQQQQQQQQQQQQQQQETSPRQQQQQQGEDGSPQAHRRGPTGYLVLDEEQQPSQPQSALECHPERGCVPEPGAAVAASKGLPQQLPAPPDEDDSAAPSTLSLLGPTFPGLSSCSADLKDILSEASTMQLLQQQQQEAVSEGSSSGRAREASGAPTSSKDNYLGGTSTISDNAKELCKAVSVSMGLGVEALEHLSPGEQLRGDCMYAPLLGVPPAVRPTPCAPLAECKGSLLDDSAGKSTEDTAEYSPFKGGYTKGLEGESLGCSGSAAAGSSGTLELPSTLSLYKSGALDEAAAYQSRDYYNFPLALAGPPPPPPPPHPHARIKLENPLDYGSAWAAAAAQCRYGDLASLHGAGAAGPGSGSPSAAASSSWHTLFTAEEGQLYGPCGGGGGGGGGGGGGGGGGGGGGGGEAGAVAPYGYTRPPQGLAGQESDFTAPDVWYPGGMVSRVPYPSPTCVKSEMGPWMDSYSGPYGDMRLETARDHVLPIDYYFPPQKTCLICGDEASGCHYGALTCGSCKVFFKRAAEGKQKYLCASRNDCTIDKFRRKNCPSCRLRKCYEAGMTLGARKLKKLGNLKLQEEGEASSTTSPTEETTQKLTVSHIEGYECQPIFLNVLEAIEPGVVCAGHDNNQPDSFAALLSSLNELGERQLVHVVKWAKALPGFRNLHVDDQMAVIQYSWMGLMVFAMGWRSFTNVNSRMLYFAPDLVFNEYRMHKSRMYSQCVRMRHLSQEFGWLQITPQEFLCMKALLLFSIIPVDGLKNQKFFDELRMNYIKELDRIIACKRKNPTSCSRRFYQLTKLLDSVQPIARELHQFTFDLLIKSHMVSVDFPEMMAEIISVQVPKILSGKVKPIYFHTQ
# Test: Antagonist activity at androgen receptor in human C4-2-PSA-rl cells incubated for 24 hrs in presence of androgen R1881 by dual-glo luciferase reporter gene assay
# Format: cell-based
row,SMILES,pEC50
1,Cc1noc(C)c1CSCC(=O)N1CCN(c2ccccc2)CC1,< 4.60
2,Cc1ccccc1N1CCN(C(=O)CN(C)Cc2ccccc2)CC1,< 4.60
3,Cc1ccccc1N1CCN(C(=O)C[S+]([O-])Cc2c(C)noc2C)CC1 (stereo not given),< 4.60
4,Cc1ccccc1N1CCN(C(=O)CSc2ccccc2)CC1,< 4.60
5,Cc1ccc(N2CCN(C(=O)CSCc3c(C)noc3C)CC2)cc1,< 4.60
6,Cc1ccccc1N1CCN(C(=O)COCc2c(C)noc2C)CC1,< 4.60
7,Cc1cccc(N2CCN(C(=O)CSCc3c(C)noc3C)CC2)c1,< 4.60
8,COc1ccccc1N1CCN(C(=O)CSCc2c(C)noc2C)CC1,< 4.60
9,Cc1ccccc1N1CCN(C(=O)/C=C/c2ccccc2)CC1,< 4.60
10,Cc1ccccc1N1CCN(C(=O)NCSCc2c(C)noc2C)CC1,< 4.60
11,Cc1ccccc1N1CCC(OC(=O)NCSCc2c(C)noc2C)CC1,< 4.60
12,Cc1ccc(Cl)cc1N1CCN(C(=O)[C@H]2C[C@H]2c2ccc(F)cc2)CC1,5.77
13,Cc1ccc(Cl)cc1N1CCN(C(=O)[C@@H]2C[C@@H]2c2ccc(F)cc2)CC1,4.82
14,Cc1ccc(Cl)cc1N1CCN(C(=O)C2CC2c2ccc(F)cc2)CC1 (racemic),5.57
15,Cc1ccccc1N1CCN(C(=O)[C@H]2C[C@@H]2c2ccccc2)CC1 (relative stereo),< 4.60
